Patent US11963939B2, “Use of N-acetylcysteine to treat central nervous system disorders” (Neuronasal, Inc., priority 2017, dated 2024)

Tests used:
[1] = tested on: collagenase-induced mouse model of ICH; assay: In vivo collagenase-induced mouse model of ICH (Fluoro-Jade staining, corner task, adhesive tape removal task, hematoma size)
Procedure: In vivo collagenase-induced mouse model of ICH: Male C57BL/6 mice (8 to 10 weeks of age) or mice (10 to 12 weeks of age) were anesthetized with isoflurane (2% to 5%) and placed on a stereotaxic frame. During the procedure, the animal's body temperature was maintained at 37° C. with a homeothermic blanket. 1 mL of collagenase (0.075 IU) was infused into the right striatum at a flow rate of 0.120 μL/min using a Nanomite® syringe pump and a syringe. Relative to the bregma point, the stereotaxic coordinates of the injection were: lateral, −0.20; anteroposterior, 0.62; and dorsoventral, −0.40. In control animals, 1 mL of saline was infused. The treatment group received NAC (75 mg/kg or 300 mg/kg in normal saline, I.P.) once a day for 7 days starting at 2 h after collagenase infusion. For combinatorial studies, NAC (40 mg/kg, I.P.) and PGE 2 (10 μM, ICV) were administered to the mice 2 h after the collagenase injection, and then NAC (40 mg/kg) was administered once daily for 7 days. The control groups received the vehicle (normal saline) alone. The animals were randomized to sham or ICH groups. The identities of the mice that received vehicle or NAC were masked to surgeons who performed the experiments. […] Proper postoperative care was provided until the animals recovered completely.
Behavioral analysis: The corner task assessed integrated sensorimotor function in the stimulation of vibrissae (sensory neglect) and rearing (motor response). Mice were placed between two cardboard pieces that formed a corner with a 30° angle. While maintaining the 30° angle, the boards were gradually moved toward the mouse until the mouse approached the corner, reared upward, and turned 180° to face the open end. The direction (left or right) in which the mouse turned was recorded for each trial. Ten trials were performed for each mouse.
For the sensory neglect task (adhesive tape removal task), adhesive tape was placed on the planter region of the forward paw (right and left) of each mouse. The time from which the tape was applied to when the mouse successfully removed the tape was recorded for each paw. A maximum of 300 s for each paw was allowed.
Fluoro-Jade® B staining: Neurodegeneration of cells was assessed in mice with collagenase-induced ICH using Fluoro-Jade® B staining. 40 μM brain sections were mounted on gelatin-coated slides and dried at room temperature overnight. The sections were immersed in a graded series of alcohol solutions before being immersed in a 0.06% potassium permanganate (KMnO4) solution for 15 min. Sections were washed with water before being immersed in a 0.001% Fluoro-Jade® staining solution with gentle shaking in the dark for 30 min. The sections were then washed with water and dried overnight at room temperature in the dark before being dehydrated and coverslipped with DPX. Fluoro-Jade® B staining was examined within perihematoma or hematoma regions using a fluorescence microscope. Quantification of Fluoro-Jade® B staining was performed using three brain sections (anterior to posterior of hematoma) using Metamorph analysis.
The vehicle or NAC was then administered daily up to 7 days following the ictus. Neuronal loss was determined using a non-specific marker of neurodegeneration, Fluoro-Jade® staining. […] Mouse behavior was assessed using a corner task (spatial neglect) and an adhesive tape removal task (sensory neglect). Mouse behavior was assessed on day 1, 3, and 7 after the induction of ICH.

[2] = target: T1, recombinant ALOX5 (Homo sapiens, UniProt P09917); assay: Lipoxygenase UV/Vis-based IC50 assay with recombinant ALOX5; type: biochemical; details: test tube assay
T1 sequence (P09917 1-674): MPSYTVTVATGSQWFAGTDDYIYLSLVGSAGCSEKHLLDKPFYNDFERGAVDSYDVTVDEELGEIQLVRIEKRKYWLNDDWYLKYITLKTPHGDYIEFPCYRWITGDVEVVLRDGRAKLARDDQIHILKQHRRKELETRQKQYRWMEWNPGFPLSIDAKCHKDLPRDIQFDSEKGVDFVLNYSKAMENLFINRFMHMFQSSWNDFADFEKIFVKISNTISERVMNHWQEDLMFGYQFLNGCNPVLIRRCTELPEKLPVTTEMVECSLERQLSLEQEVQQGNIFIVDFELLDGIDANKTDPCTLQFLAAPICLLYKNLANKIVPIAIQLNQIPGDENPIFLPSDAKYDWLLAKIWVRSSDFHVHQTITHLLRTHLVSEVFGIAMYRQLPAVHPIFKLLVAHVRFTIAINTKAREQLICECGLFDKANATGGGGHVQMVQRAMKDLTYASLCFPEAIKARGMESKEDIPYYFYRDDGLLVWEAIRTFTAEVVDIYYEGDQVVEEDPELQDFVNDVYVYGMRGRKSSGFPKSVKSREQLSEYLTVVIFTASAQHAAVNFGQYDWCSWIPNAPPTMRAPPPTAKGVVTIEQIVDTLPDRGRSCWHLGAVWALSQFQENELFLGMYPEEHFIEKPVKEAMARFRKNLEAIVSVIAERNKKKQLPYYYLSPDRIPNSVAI
Procedure: Lipoxygenase UV/Vis-based IC50 assay: Inhibition potencies were determined by following the formation of conjugated diene products, 5-HpETE [ε=27000 M^−1 cm^−1 for AA turnover) at 234 nm using a UV/Vis spectrophotometer. All reaction mixtures were 2 mL in volume, and the reaction mixtures were constantly stirred using a magnetic stir bar at room temperature (23° C.). All reactions were carried out in a buffer containing 200 μM ATP and 10 μM AA. The AA concentration of a sample was verified by full turnover with soybean-1 lipoxygenase and quantifying the product concentration. Inhibitors were stored in DMSO at −20° C. Enzymatic reactions were initiated by adding approximately 100 nM-300 nM ammonium sulfate-precipitated wildtype enzyme. IC50 values were obtained by determining the enzymatic rate at a minimum of five inhibitor concentrations, plotting the enzymatic rate against inhibitor concentration, and performing a hyperbolic saturation curve fit. Inhibitor concentrations were assayed in duplicate or triplicate.
Significance was determined by two-way ANOVA and Bonferroni's post hoc test.

[3] = tested on: ALOX AP; assay: ALOX AP mRNA levels in hemin-treated primary cortical neurons (RT-PCR); type: cell-based, mouse; details: NAC 1 mM
Procedure: Quantitative real-time PCR: Total RNA was prepared using a NucleoSpin® RNA II kit. Duplex real-time PCR reactions were performed with gene expression assays using 6-carboxyfluorescein-labeled probes for ALOX5 (Mm 01182747_m1) and ALOX5AP (Mm 01218551_m1). Expression levels were normalized to β-actin gene expression levels, which were determined with a VIC™-labeled probe. All experiments were performed using a real-time PCR system.
The abilities of hemin and NAC to induce increases in ALOX5 and ALOX AP mRNA levels were examined. […] Consistent with the protein data (FIG. 17), hemin induced increases in ALOX AP and ALOX5 mRNA levels in a time-dependent manner.

[4] = tested on: total glutathione; assay: Total glutathione levels in neurons by HPLC; type: cell-based, mouse; details: 0.1 or 1.0 mM NAC, presence or absence of hemin
Text: Cysteine is the rate-limiting precursor for the synthesis of glutathione with γ-glutamylcysteine synthetase and glutathione synthetase. NAC undergoes hydrolysis to liberate cysteine, which is transported by the alanine-serine cysteine (ASC) system. To determine whether NAC-induced protection from heme requires glutathione, glutathione synthesis was inhibited using buthionine sulfoximine (BSO), a selective inhibitor of γ-glutamylcysteine synthetase, the rate limiting step in glutathione synthesis. The necessity of a NAC-induced increase in glutathione, and whether NAC-induced protection could be abrogated were evaluated. A reduction in glutathione levels was measured using HPLC. […] In the presence of hemin, the absolute levels of glutathione were reduced. […] Significance was determined by two-way ANOVA followed by Bonferroni's comparison test, from three independent experiments.

[5] = tested on: Chac1; assay: Chac1 gene expression in ICH mice by quantitative RT-PCR; type: in vivo, mouse; details: ICH mice after NAC treatment
Text: Total glutathione levels were unchanged after NAC treatment in ICH mice. […] FIG. 29 illustrates an experimental design to study the effect of NAC on total glutathione levels in the striatum of a collagenase infusion mouse model of ICH. […] FIG. 31 illustrates that ICH-induced ATF4 dependent Chac1 degraded glutathione to 5-oxoproline.

[6] = tested on: ICH model of rats
[7] = NAC 40 mg/kg i.p. and/or PGE2 10 μM ICV, days 1, 3, 7

Structure (SMILES): CC(=O)N[C@@H](CS)C(=O)O [NAC, N-acetylcysteine]
- Hematoma size by light microscopy ([1]; 75 mg/kg or 300 mg/kg NAC vs control ICH group): No significant difference
- Adhesive tape removal task (sensory neglect) ([1]; 300 mg/kg NAC, days 1, 3, 7): improvements in sensory neglect were observed
- Corner turn task deficits (spatial neglect) ([1]; 300 mg/kg NAC, days 1, 3, 7): corrected by administration of 300 mg/kg NAC
- Sensory neglect (adhesive tape removal task) behavioral deficits [1, 7]: no effect
- Spatial neglect (corner task) behavioral deficits [1, 7]: no effect
- Neuronal degeneration in perihematomal regions (Fluoro-Jade staining) ([1]; NAC 40 mg/kg i.p. daily 7 days and/or dmPGE2 10 μM ICV 2 h post-injury): no significant effect
- Neuronal degeneration in perihematomal regions (Fluoro-Jade staining) ([1]; NAC 300 mg/kg I.P. daily from 2 h post-ICH, day 7): reduced neuronal degeneration in perihematomal regions
- Collagenase activity by hematoma size ([1]; NAC 300 mg/kg, 24 h after collagenase injection): did not inhibit or affect collagenase activity
- Inhibition of ALOX5 activity [2]: did not inhibit ALOX5 activity
- Hemin-induced ALOX AP expression [3]: blocked the expression of ALOX AP
- Total glutathione levels in neurons [4]: dose-dependently increased the total glutathione levels
- ATF4-regulated Chac1 [5]: decreased after NAC treatment
- Lesion volume and functional recovery ([6]; 40 mg/kg or 75 mg/kg, 2 h post-ICH): not effective in reducing lesion volume or improving functional recovery
- Toxicity of higher doses ([6]; 300 mg/kg): caused significant toxicity in rats, including paralytic ileus and/or death
- Highest dose tolerated without toxicity ([6]; ICH model): 40 mg/kg
